Test results: patent US20160313301A1, “METHOD FOR PREDICTING ANTITUMOR EFFICACY OF HSP90 INHIBITOR IN CANCER TREATMENT” (NIPPON KAYAKU KABUSHIKI KAISHA, priority 2013, published 2016)
Entries after “also recorded” stand apart in the source; their conditions may differ.

Experiments:
Format in all cases: in vivo
[1] = system: human ovarian cancer cells OC-11-JCK; test: Anti-tumor test in mice transplanted subcutaneously with tumor (OC-11-JCK); conditions: OC-11-JCK s.c. in mice; 40 mg/kg tail vein three times at 4 day intervals
Method: (§1) Human ovarian cancer cell lines OC-10-JCK, OC-11-JCK, and TOGY-18, and a human breast cancer cell line MC-19-JCK were obtained from Central Institute for Experimental Animals. Cryopreserved tumor pieces were thawed, and then OC-10-JCK, OC-11-JCK, and MC-19-JCK were transplanted subcutaneously to SCID mice, while TOGY-18 was transplanted subcutaneously to nude mice. After the tumors were grown, the tumors were removed and cut into tumor pieces. The tumor pieces were transplanted subcutaneously to SCID mice or nude mice with trocars. The tumors were maintained by repeated transplantation in the same manner as described above to prepare tumors to be transplanted. Human ovarian cancer cell lines ES-2, SK-OV-3, OV-90, and TOV-21G, and a human lung cancer cell line NCI-H1975 were obtained from American Type Culture Collection (ATCC). The SK-OV-3 and NCI-H1975 cell lines were grown in recommended culture media, of which about 1×10^7 cells were suspended into HBSS and then injected subcutaneously to SCID mice. After the cells formed tumors, the tumors were removed and cut into tumor pieces. The tumor pieces were transplanted subcutaneously to SCID mice with trocars. The tumors were maintained by repeated transplantation in the same manner as described above to prepare tumors to be transplanted. […]

[2] = system: human breast cancer cells MC-19-JCK; test: Anti-tumor test in mice transplanted subcutaneously with tumor (MC-19-JCK); conditions: MC-19-JCK s.c. in mice; administered once at 40 mg/kg
Method: as §1

[3] = system: human ovarian cancer cells OC-11-JCK/PTX; test: Anti-tumor test in mice transplanted subcutaneously with tumor (OC-11-JCK/PTX); conditions: OC-11-JCK/PTX s.c. in mice
Method: Human ovarian cancer cell lines OC-10-JCK, OC-11-JCK, and TOGY-18, and a human breast cancer cell line MC-19-JCK were obtained from Central Institute for Experimental Animals. Cryopreserved tumor pieces were thawed, and then OC-10-JCK, OC-11-JCK, and MC-19-JCK were transplanted subcutaneously to SCID mice, while TOGY-18 was transplanted subcutaneously to nude mice. After the tumors were grown, the tumors were removed and cut into tumor pieces. The tumor pieces were transplanted subcutaneously to SCID mice or nude mice with trocars. The tumors were maintained by repeated transplantation in the same manner as described above to prepare tumors to be transplanted. Human ovarian cancer cell lines ES-2, SK-OV-3, OV-90, and TOV-21G, and a human lung cancer cell line NCI-H1975 were obtained from American Type Culture Collection (ATCC). The SK-OV-3 and NCI-H1975 cell lines were grown in recommended culture media, of which about 1×10^7 cells were suspended into HBSS and then injected subcutaneously to SCID mice. After the cells formed tumors, the tumors were removed and cut into tumor pieces. The tumor pieces were transplanted subcutaneously to SCID mice with trocars. The tumors were maintained by repeated transplantation in the same manner as described above to prepare tumors to be transplanted. The OV-90 cell line was grown in a recommended culture medium, of which about 1×10^6 cells were suspended into HBSS and then injected subcutaneously to SCID mice. After the cells formed a tumor, the tumor was subjected to an anti-tumor test. The TOV-21G cell line was grown in a recommended culture medium, of which about 1×10^7 cells were suspended into HBSS and then injected subcutaneously to SCID mice. After the cells formed a tumor, the tumor was subjected to the anti-tumor test. The ES-2 cell line was grown in a recommended culture medium, suspended into HBSS, and then injected subcutaneously to nude mice. After the cells formed a tumor, the tumor was removed and cut into tumor pieces. The tumor pieces were transplanted subcutaneously to nude mice with a trocar. […]

[4] = system: human ovarian cancer cells TOGY-18; test: Anti-tumor test in mice transplanted subcutaneously with tumor (TOGY-18); conditions: TOGY-18 s.c. in mice; 40 mg/kg tail vein three times at 4 day intervals
Method: as §1

[5] = system: human lung cancer cells NCI-H1975; test: Anti-tumor test in mice transplanted subcutaneously with tumor (NCI-H1975); conditions: NCI-H1975 s.c. in mice; 40 mg/kg three times at 7 day intervals
Method: as §1

[6] = system: human ovarian cancer cells TOV-21G; test: Anti-tumor test in mice transplanted subcutaneously with tumor (TOV-21G); conditions: TOV-21G s.c. in mice
Method: as §1

[7] = 40 mg/kg tail vein three times at 4 day intervals

Question: How did the “T/C % (lowest value from the beginning to the 21st day of administration)” value [1] turn out when `CC(C)c1cc(-c2n[nH]c(=O)n2-c2ccc(CN3CCN(C)CC3)cc2)c(O)cc1O` [A-1, 5-(2,4-dihydroxy-5-isopropyl-phenyl)-4-[4-(4-methyl-piperazin-1-ylmethyl)-phenyl]-2,4-dihydro-[1,2,4]triazol-3-one] was run?
Answer: 36.0%

Question: And the “T/C % (lowest value from the beginning to the 21st day of administration)” value [2]?
Answer: 5.2%

Question: What about the “anti-tumor effect (in words)” value [3] of the same compound?
Answer: hardly effective; also recorded: lowly effective

Question: And the “T/C % (lowest value from the beginning to the 21st day of administration)” value [3, 7]?
Answer: 62.4%

Question: What about the “T/C % (lowest value from the beginning to the 21st day of administration)” value [4] of the same compound?
Answer: 45.2%

Question: What about the “T/C % (lowest value from the beginning to the 21st day of administration)” value [5] of the same compound?
Answer: 49.4%

Question: And the “anti-tumor effect (in words)” value [6]?
Answer: relatively highly effective

Question: And the “T/C % (lowest value from the beginning to the 21st day of administration)” value [6, 7]?
Answer: 25.0%
